From patent US11713309B2, “Solid forms of Cerdulatinib” (Alexion Pharmaceuticals, Inc., priority 2018, dated 2023)
Where a name gives a salt, the structure may show the parent alone.

Legend:
Type in all cases: physicochemical
[1] = Solubility of Compound I Form I in various solvents
[2] = Gravimetric vapor sorption (GVS) hygroscopicity; conditions: for GVS water absorbed: first scale up material; for Crystalline form by XRPD post GVS analysis: exposure to humidity 0 to about 90% RH, about 25° C.
Description: Sorption isotherms were obtained using a Hiden Isochema moisture sorption analyser (model IGAsorp), controlled by IGAsorp Systems Software v6.50.48. The sample was maintained at a constant temperature (25° C.) by the instrument controls. The humidity was controlled by mixing streams of dry and wet nitrogen, with a total flow of 250 mL·min^−1. The instrument was verified for relative humidity content by measuring three calibrated Rotronic salt solutions (10-50-88%). The weight change of the sample was monitored as a function of humidity by a microbalance (accuracy+/−0.005 mg). A defined amount of sample was placed in a tared mesh stainless steel basket under ambient conditions. A full experimental cycle consisted of two scans (sorption and desorption) at a constant temperature (25° C.) and 10% RH intervals over a 10-90% range (90 minutes for each humidity level).
The hygroscopicity of the esylate, mesylate, HCl, and sulfate salts/co-crystals of Compound I formed via the first scale up process was analyzed. All hygroscopicity experiments covered a wide range of humidity (0 to about 90% relative humidity) and were performed at about 25° C. to assess behavior.

[3] = Kinetic solubility in water; conditions: 37° C., listed as Isethionate Type A; for pH of supernatant: water (native pH 7.6)
Description: (§1) Kinetic solubility testing was conducted as follows: About 40-55 mg material was weighed into a 5-mL EP pipe. 4 mL of water/bio-relevant media (SGF, FaSSIF, or FeSSIF) was added into the corresponding sample pipe (drug loading: ˜10 mg/mL calculated as freebase). The pipes were capped tightly and the material was verified to be in contact with the media. The sample vials were placed on a roller and start rolling at 37° C. (rate: 25 r/min). Samples were taken at 1, 2, 4, 24 h. For each time point, 1.0 mL of suspension was transferred into a 2-mL centrifuge tube and the samples were centrifuged. The supernatant was filtered via 0.45 μm PTFE membrane and solubility and pH were measured. An XRPD test on residual solids was conducted.

[4] = Kinetic solubility in FaSSIF; conditions: listed as Isethionate Type A
Description: as §1

[5] = Kinetic solubility in SGF; conditions: listed as Isethionate Type A
Description: as §1

[6] = Kinetic solubility in FeSSIF; conditions: listed as Isethionate Type A
Description: as §1

[7] = XRPD form evaluation of materials recovered after solubility analysis; conditions: aqueous solubility analysis, second scale up material
Description: (§2) The solubility of the salts/co-crystals of Compound I prepared from the second scale up process was analyzed. The materials recovered after the solubility analysis were evaluated by XRPD to observe any form changes.

[8] = Thermodynamic aqueous solubility by HPLC; conditions: HPLC grade water, 25° C., 24 hours, second scale up material
Description: The suspension was equilibrated at 25° C. for 24 hours. The suspension was then passed through a filter into an HPLC vial. The filtrate was then diluted by an appropriate factor. Quantification was executed by HPLC with reference to a standard solution of approximately 1 mg·mL^−1 in acetonitrile:water (1:1). Different volumes of the standard, diluted and undiluted sample solutions were injected. […] HPLC method parameters are described in Table 1 and Table 2.
Analysis was performed on an Agilent 1100 series liquid chromatography, equipped with a UV detector (DAD or VWD) @ 254 nm and using Chemstation Rev.B.01.03 software for data processing.
as §2

## CCS(=O)(=O)N1CCN(c2ccc(Nc3ncc(C(N)=O)c(NC4CC4)n3)cc2)CC1 [Compound I Form I, 4-(cyclopropylamino)-2-(4-(4-(ethylsulfonyl)piperazin-1-yl)phenylamino)pyrimidine-5-carboxamide]
[1]; 25 mg/1 mL Acetone
  Solubility of Compound I Form I (Observations): <5 mg
[1]; 25 mg/1 mL Acetonitrile
  Solubility of Compound I Form I (Observations): <5 mg
[1]; 25 mg/1 mL DCM
  Solubility of Compound I Form I (Observations): about 10 mg
[1]; 25 mg/1 mL EtOAc
  Solubility of Compound I Form I (Observations): <5 mg
[1]; 25 mg/1 mL Heptane
  Solubility of Compound I Form I (Observations): <5 mg
[1]; 25 mg/1 mL IPA
  Solubility of Compound I Form I (Observations): <5 mg
[1]; 25 mg/1 mL MeOH
  Solubility of Compound I Form I (Observations): <5 mg
[1]; 25 mg/1 mL TBME
  Solubility of Compound I Form I (Observations): <5 mg
[1]; 25 mg/1 mL THF
  Solubility of Compound I Form I (Observations): <5 mg
[1]; 25 mg/1 mL Toluene
  Solubility of Compound I Form I (Observations): about 10 mg

## CCS(=O)(=O)N1CCN(c2ccc(Nc3ncc(C(N)=O)c(NC4CC4)n3)cc2)CC1 [Compound I mesylate Form II, 4-(cyclopropylamino)-2-(4-(4-(ethylsulfonyl)piperazin-1-yl)phenylamino)pyrimidine-5-carboxamide]
[2]; 25° C., listed as Comp. I Mesylate Form II
  GVS water absorbed: About 12 mg
[2]; desorption
  GVS total mass lost: about 2%
[2]
  Crystalline form by XRPD post GVS analysis: does not result in a form change
[2]; sorption, increasing RH
  GVS total weight uptake from the starting point: ≤ 1.4%

## CCS(=O)(=O)N1CCN(c2ccc(Nc3ncc(C(N)=O)c(NC4CC4)n3)cc2)CC1 [Compound I isethionate Type A, 4-(cyclopropylamino)-2-(4-(4-(ethylsulfonyl)piperazin-1-yl)phenylamino)pyrimidine-5-carboxamide]
[3]; 1 h
  pH of supernatant: 2.1
[3]; 2 h
  pH of supernatant: 2.0
[3]; 4 h
  pH of supernatant: 2.1
[3]; 24 h
  pH of supernatant: 2.1
[3]; water, 1 h, 2 h, 4 h, 24 h
  Final Form of residual solids (XRPD): Freebase Form II
[3]; water, 1 h
  Kinetic solubility: 1500 µg/mL
[3]; water, 2 h
  Kinetic solubility: 1300 µg/mL
[3]; water, 4 h
  Kinetic solubility: 1300 µg/mL
[3]; water, 24 h
  Kinetic solubility: 1200 µg/mL
[4]; FaSSIF, 37° C., 1 h, drug loading ~10 mg/mL as freebase
  Solubility (mg/mL) 1 h: 0.020 mg/mL
[4]; FaSSIF, 37° C., 2 h
  Solubility (mg/mL) 2 h: 0.026 mg/mL
[4]; FaSSIF, 37° C., 4 h
  Solubility (mg/mL) 4 h: 0.018 mg/mL
[4]; FaSSIF, 37° C., 24 h
  Solubility (mg/mL) 24 h: 0.015 mg/mL
[4]; supernatant, FaSSIF (native pH 6.5), 1 h
  pH 1 h: 3.9
[4]; supernatant, FaSSIF (native pH 6.5), 2 h
  pH 2 h: 3.9
[4]; supernatant, FaSSIF (native pH 6.5), 4 h
  pH 4 h: 3.9
[4]; supernatant, FaSSIF (native pH 6.5), 24 h
  pH 24 h: 3.9
[5]; SGF, 37° C., 1 h, drug loading ~10 mg/mL as freebase
  Solubility (mg/mL) 1 h: 0.077 mg/mL
[5]; SGF, 37° C., 2 h
  Solubility (mg/mL) 2 h: 0.081 mg/mL
[5]; SGF, 37° C., 4 h
  Solubility (mg/mL) 4 h: 0.073 mg/mL
[5]; SGF, 37° C., 24 h
  Solubility (mg/mL) 24 h: 0.069 mg/mL
[5]; supernatant, SGF (native pH 1.8), 1 h
  pH 1 h: 1.9
[5]; supernatant, SGF (native pH 1.8), 2 h
  pH 2 h: 1.9
[5]; supernatant, SGF (native pH 1.8), 4 h
  pH 4 h: 2.1
[5]; supernatant, SGF (native pH 1.8), 24 h
  pH 24 h: 2.0
[6]; 37° C., 1 h, drug loading ~10 mg/mL as freebase
  Solubility (mg/mL) 1 h: 0.0058 mg/mL
[6]; 37° C., 2 h
  Solubility (mg/mL) 2 h: 0.0053 mg/mL
[6]; 37° C., 4 h
  Solubility (mg/mL) 4 h: 0.0052 mg/mL
[6]; 37° C., 24 h
  Solubility (mg/mL) 24 h: 0.0054 mg/mL
[6]; XRPD of residual solids, 1 h, 2 h, 4 h, 24 h (merged cell)
  Final Form: Freebase Form II
[6]; supernatant, 1 h
  pH 1 h: 4.6
[6]; supernatant, 2 h
  pH 2 h: 4.7
[6]; supernatant, 4 h
  pH 4 h: 4.7
[6]; supernatant, 24 h
  pH 24 h: 4.6

## CCS(=O)(=O)N1CCN(c2ccc(Nc3ncc(C(N)=O)c(NC4CC4)n3)cc2)CC1 [Compound I sulfate Form II, 4-(cyclopropylamino)-2-(4-(4-(ethylsulfonyl)piperazin-1-yl)phenylamino)pyrimidine-5-carboxamide]
[7]; listed as Compound I sulfate prepared from water
  Form change on solubility analysis (XRPD post vs pre): no form change
[8]; listed as Comp. I Sulfate Similar to Form II
  solubility: 7 µg/mL
[2]; 25° C., listed as Comp. I Sulfate Similar to Form II
  GVS water absorbed: About 0.5 mg
[2]; dried to 0% RH
  GVS total weight loss: about 5.9%
[2]; listed as crystalline Compound I sulfate sample
  Crystalline form by XRPD post GVS analysis: slightly increased the crystallinity
[2]; second scale up material
  Hygroscopicity (qualitative): facile pick-up of surface moisture
[2]; up to about 80% RH
  GVS gradual weight gain: about 4.2%

## CCS(=O)(=O)N1CCN(c2ccc(Nc3ncc(C(N)=O)c(NC4CC4)n3)cc2)CC1 [Compound I esylate Form I, 4-(cyclopropylamino)-2-(4-(4-(ethylsulfonyl)piperazin-1-yl)phenylamino)pyrimidine-5-carboxamide]
[2]; between 0 and about 60% RH, 25° C.
  GVS hygroscopicity / moisture uptake: not subject to moisture uptake
[2]; between about 60% to about 90% RH
  GVS weight uptake: RH; about 5 mg
[2]; dried to about 10% RH
  GVS mass lost relative to the input weight: about 4.6%
[2]
  Crystalline form by XRPD post GVS analysis: loss of crystallinity
[2]; large water uptake about 60 to about 90% RH
  Deliquescence in GVS: deliquescence did not result
[2]; sorption above about 60% RH
  GVS weight change (sudden increase in weight): ~35%

## CCS(=O)(=O)N1CCN(c2ccc(Nc3ncc(C(N)=O)c(NC4CC4)n3)cc2)CC1 [Compound I sulfate Form I, 4-(cyclopropylamino)-2-(4-(4-(ethylsulfonyl)piperazin-1-yl)phenylamino)pyrimidine-5-carboxamide]
[7]; listed as Compound I sulfate prepared from IPA
  Form change on solubility analysis (XRPD post vs pre): form change to Compound I sulfate Form II
[8]; listed as Comp. I Sulfate Similar to Form I
  solubility: 10 µg/mL
